Legend:
emigrating leukocytes = assay: Potentiating Activity for Leukocyte Migration (CMC pouch); format: in vivo, rat (male Donryu); conditions: 6 hours, vs control group
Protocol: The test was performed according to the method described by H. Ishikawa et al in "Yakugaku Zasshi (Journal of the Pharmaceutical Society of Japan)", vol. 88, 1472 (1968).
Male Donryu rats weighing about 150 g were divided into groups of 4 to 5 animals each. Five ml of 2% suspension of carboxymethylcellulose (CMC) in physiological saline was injected subcutaneously in the supra-scapular area. Compounds tested (0.4 ml/rat) were administered into the CMC pouch immediately after the injection of CMC suspension. Six hours later, 0.1 ml of fluid in the CMC pouch was collected and mixed with 6 ml of 0.05% brilliant cresyl blue solution in phosphate buffer (pH 7.2). The suspension was put in a Burker chamber and the emigrating leukocytes were counted under a microscope. The percent potentiation was calculated as compared with the count in the control group.

[1] = tested on: plaque forming cells (PFC) in spleen; assay: Activity for Antibody Production: plaque forming cells (PFC) in spleen after sensitization with sheep red blood cells; format: in vivo, mouse (C57B1/6); conditions: Control = 100, 7 days after sensitization
Protocol: (§1) C57B1/6 mice (6 week old, 20 g) were sensitized by intraperitoneally administering sheep red blood cells of 5×10^8 /0.1 ml. Compounds tested were given orally on the same day and next day of the sensitization. Seven days after the sensitization, the number of plaque forming cells (PFC) in spleen and of rosette forming cells (RFC) in spleen and thymus were measured in a usual manner.

[2] = tested on: rosette forming cells (RFC) in spleen; assay: Activity for Antibody Production: rosette forming cells (RFC) in spleen after sensitization with sheep red blood cells; format: in vivo, mouse (C57B1/6); conditions: Control = 100, 7 days after sensitization
Protocol: as §1

[3] = tested on: rosette forming cells (RFC) in thymus; assay: Activity for Antibody Production: rosette forming cells (RFC) in thymus after sensitization with sheep red blood cells; format: in vivo, mouse (C57B1/6); conditions: Control = 100, 7 days after sensitization
Protocol: as §1

Adjuvant Arthritis = assay: Prophylactic Effect on Adjuvant Arthritis (hind feet swelling); format: in vivo, rat (Lewis male); conditions: day 1 to day 20, hind feet swelling at 28 days
Protocol: The tails of Lewis male rats (250 g) were injected mycobacterium butyricum (0.5 mg/0.1 ml). Compounds tested were orally administered daily from the adjuvant inoculation day (day 1) to day 20. Swellings in the hind feet were measured at 28 days after the adjuvant inoculation.

rat = assay: Acute Toxicity (rat, per os); format: in vivo; conditions: 2000 mg/kg
From the text: | Acute Toxicity (rat, per os)

[4] = 30 mg/kg orally, *p < 0.05, **p < 0.01
[5] = 3 mg/kg orally, *p < 0.05, **p < 0.01

Substance	Potentiation (%) (emigrating leukocytes; 20 mg/rat into the CMC pouch)	PFC in Spleen ([1]; 30 mg/kg orally, *p < 0.05)	RFC in Spleen ([2]; 30 mg/kg orally, **p < 0.01)	RFC in Thymus [3, 4]	Inhibition (%) (Adjuvant Arthritis; 25 mg/kg orally daily)	Inhibition (%) (Adjuvant Arthritis; 100 mg/kg orally daily)	Potentiation (%) (emigrating leukocytes; 5 mg/rat into the CMC pouch)	Potentiation (%) (emigrating leukocytes; 10 mg/rat into the CMC pouch)	PFC in Spleen ([1]; 3 mg/kg orally)	RFC in Spleen ([2]; 3 mg/kg orally, *p < 0.05)	RFC in Thymus [3, 5]	other results
poly(carboxyethylgermanium sesquioxide) [Comparison, reference compound]	13%	100	121	168	-18%	15%						
polycondensation product of p-(N-ethyl-3-ethoxycarbonylpropionylamino)phenylgermanium trihydroxide [Compound D]	210%						7%	33%				
polycondensation product of p-(N-methyl-3-ethoxycarbonylpropionylamino)phenylgermanium trihydroxide		81	108	248	5%	31%	87%					Potentiation (%) (emigrating leukocytes; 2.5 mg/rat into the CMC pouch): 17%
polycondensation product of p-(N-methyl-4-ethoxycarbonylbutyrylamino)phenylgermanium trihydroxide	56%											
polycondensation product of p-(N-methyl-3-carboxypropionylamino)phenylgermanium trihydroxide	47%				35%	53%		26%	68	86	218	
polycondensation product of p-(N-ethyl-2-ethoxycarbonylacetylamino)phenylgermanium trihydroxide	96%						87%					Potentiation (%) (emigrating leukocytes; 0.25 mg/rat into the CMC pouch): 7%
polycondensation product of p-(N-methyl-m-methylbenzoylamino)phenylgermanium trihydroxide	55%							46%				
polycondensation product of p-(N-methyl-2-ethoxycarbonylacetylamino)phenylgermanium trihydroxide	91%	175	703	431	48%			16%	125	346	284	PFC in Spleen ([1]; 1 mg/kg orally): 110; RFC in Spleen ([2]; 1 mg/kg orally): 157; RFC in Thymus ([3]; 1 mg/kg orally, **p < 0.01): 315; Inhibition (%) (Adjuvant Arthritis; 10 mg/kg orally daily): 22%; Mortality (rat): 0/5
polycondensation product of p-(N-methyl-4-carboxybutyrylamino)phenylgermanium trihydrodie								44%	95	85	141	

From patent US4361579A, “Organogermanium compounds” (Yoshitomi Pharmaceutical Industries, Ltd., priority 1979, dated 1982)
